Assay results from patent US20250041281A1, “METHOD OF TREATING BILIARY TRACT CANCER” (J-PHARMA CO., LTD., priority 2023, published 2025).
Several values for one entry are separate records, joined by “and”; a condition that tells them apart may be missing. Equal entries are not always repeated. Entries after “also recorded” stand apart in the source; their conditions may differ.

Experiments:
[1] = cited from earlier work
[2] = system: advanced biliary tract cancer refractory or intolerant to standard chemotherapy; assay: Phase II randomized placebo-controlled trial, efficacy (PFS by BICR, OS, DCR); format: in vivo, human; set-up: disease control rate (DCR: CR+PR+SD) / Share of disease control patients with high LAT1 expression / Share of disease control patients with low LAT1 expression: concentration or dose not given beside the values
Method: (§1) As Phase II trial of Nanvuranlat, a multicenter, randomized, placebo-controlled, double-blind, parallel-group Phase II trial was conducted at 14 centers in Japan for patients with advanced biliary tract cancer who were refractory or intolerant of standard treatment. Patients were randomized in a 2:1 ratio to receive the drug or placebo using biliary tract cancer (BTC) subtype and resection status as allocation factors. The non-rapid (Slow and/or Intermediate) genotype was set as the NAT2 genotype for selection criteria, and based on the results of the PI study conducted earlier, 25 mg/m2 of Nanvuranlat or placebo was administered intravenously for 5 consecutive days and rested for 9 days (14 days: 1 cycle). Administration of the trial drug was continued until the discontinuation criteria were met. The primary endpoint was progression-free survival using RECIST 1.1 based on Blinded Independent Central Review. Images were obtained every 6 weeks from the start date and at discontinuation. PFS was defined as the date of the first documented progressive disease (PD) or death for any reason after randomization. The primary evaluation was conducted in the full analysis set (FAS) population, which consisted of all biliary tract cancer patients randomized to one of the arms. The safety evaluation was conducted in the SAFETY population, which was randomly assigned to one of the arms and received the trial drug. Nanvuranlat was used as monohydrochloride monohydrate.
Kaplan-Meier estimates corresponding to the event time points are calculated and plotted for each treatment group. Confidence intervals for the Kaplan-Meier estimates are constructed using the log-log method with standard errors approximated by the greenwood formula. Point estimates at the 25%, 50%, and 75% of survival time and 95% confidence intervals are obtained and presented in tabular form. The Brookmeyer and Crowley method is used to construct the confidence intervals for survival time percentiles.
Fitting to a stratified Cox proportional hazards model, the hazard ratio exp((β_drug)Λ) and its 95% confidence interval are estimated and presented in tabular and forest plot form, along with the p-value of the Wald test corresponding to the null hypothesis “β_drug=0; exp(β_drug)=1”.
Stratification factor 1: “Facility,” “Gall bladder cancer and other cancers,” and “Existence or nonexistence of primary tumor resection history” Stratification factor 2: “Biliary tract cancer subtype (intrahepatic biliary tract cancer, extrahepatic biliary tract cancer, […], or duodenal papillary carcinoma)” and “Existence or nonexistence of primary tumor resection history”
This test was a multicenter, randomized, double-blind, placebo-controlled, Phase II trial conducted at 14 major cancer centers/hospitals in Japan. Patients were randomly assigned to the Nanvuranlat or placebo group (2:1), stratified by BTC subtype and whether the primary cancer lesion had been resected, generated by an independent statistical group. Randomization to the two treatment groups was performed by IWRS (Interactive Web-based Response System) and generated by an independent statistical group.
Nanvuranlat 25 mg/m^2/day or placebo was administered intravenously for 5 consecutive days, followed by a 9-day rest period (=14 days: 1 cycle). The trial drug was administered by 90-minute infusion at the investigator's site (all patients were admitted during the first treatment cycle). Patients, drug administrators, and clinical trial coordinators were blinded to trial treatment. Nanvuranlat was used as monohydrochloride monohydrate.
Treatment with additional cycles was to continue until disease progression, the occurrence of other unacceptable toxicities, pregnancy confirmation, death, withdrawal of consent, loss to follow-up, unblinding of the trial, or termination of the trial, as determined by the investigator. […]

[3] = Phase II randomized placebo-controlled trial, safety (adverse events); format: in vivo
Method: as §1, with “The non-rapid (Slow and/or Intermediate) genotype was set as the NAT2 genotype for selection criteria, and based on the results of the PI study conducted earlier, 25 mg/m2 of Nanvuranlat or placebo was administered intravenously for 5 consecutive days and rested for 9 days (14 days: 1 cycle).” left out
The trial drug was administered by 90-minute infusion at the investigator's site (all patients were admitted during the first treatment cycle). Patients, drug administrators, and clinical trial coordinators were blinded to trial treatment. Nanvuranlat was used as monohydrochloride monohydrate.
Secondary endpoint was overall survival (OS), disease control rate (DCR) as assessed by BICR, and safety. […] Blood and urinary concentrations of Nanvuranlat and its metabolite N-acetyl-JPH203 (NAc-JPH203) were evaluated.
The primary efficacy analysis was performed using a full analysis set (FAS) population that included all randomly assigned BTC patients within their designated treatment group. The safety analysis population included all patients who received at least one trial treatment (safety population).
Statistics were used to summarize safety data, response rates, pharmacokinetic and pharmacodynamic data. Unless otherwise specified, all reported p-values are one-sided. Statistical analysis was performed using SAS software (version 9.4).

Nc1cc(COc2c(Cl)cc(C[C@H](N)C(=O)O)cc2Cl)c2oc(-c3ccccc3)nc2c1 [Nanvuranlat, O-(5-amino-2-phenylbenzoxazol-7-yl)methyl-3,5-dichloro-L-tyrosine]
maximum tolerated dose ([1]; 17 patients with solid tumors): 60 mg/m^2
Grade 3 hepatic dysfunction, number of patients ([1]; only in patients with the Rapid form of NAT2): two
PFS hazard ratio (HR) by BICR vs placebo ([2]; FAS all patients n=104, 25 mg/m2 iv 5 days, 9 days rest): 0.557
Median PFS ([2]; FAS, Nanvuranlat group n=69): 46.0 days
progression-free survival rate at 1.5 months ([2]; FAS, Nanvuranlat group n=69): 53.6% and 62.3%
progression-free survival rate at 3 months ([2]; FAS, Nanvuranlat group n=69): 14.5% and 23.2%
Overall survival HR vs placebo, LAT1 high-expressing subgroup with IHC ([2]; IHC, LAT1 high): 0.35
Number of patients with controlled diseases, LAT1 score 0 ([2]; LAT1 score 0): 1
Number of patients with controlled diseases, LAT1 score 1 ([2]; LAT1 score 1): 2
Number of patients with controlled diseases, LAT1 score 2 ([2]; LAT1 score 2): 0
Number of patients with controlled diseases, LAT1 score 3 ([2]; LAT1 score 3): 0
Number of patients with controlled diseases, LAT1 score 4 ([2]; LAT1 score 4): 2
PFS HR by BICR vs placebo, LAT1 high expression subgroup ([2]; LAT1 score 4-9, n=65): 0.439
Number of patients with controlled diseases, LAT1 score 6 ([2]; LAT1 score 6): 4
Number of patients with controlled diseases, LAT1 score 9 ([2]; LAT1 score 9): 5
Number of disease control patients with high LAT1 ([2]; Nanvuranlat group, LAT1 high): 11
Number of patients with controlled diseases ([2]; Nanvuranlat group, total): 17
disease control rate (DCR: CR+PR+SD) ([2]; by BICR, Nanvuranlat group): 24.6%
PFS HR vs placebo, subgroup EHC ([2]; extrahepatic biliary tract cancer, 95% CI in brackets): 0.150 (0.0437-0.5153)
Overall survival HR vs placebo ([2]; full population of FAS): 0.849
PFS HR vs placebo, subgroup GBC ([2]; gall bladder cancer, 95% CI in brackets): 0.287 (0.1009-0.8183)
PFS HR vs placebo, subgroup IHC ([2]; intrahepatic biliary tract cancer, 95% CI in brackets): 0.872 (0.4359-1.7458)
Share of disease control patients with high LAT1 expression ([2]; of 17 disease control patients): 64.7%
Share of disease control patients with low LAT1 expression ([2]; of 17 disease control patients): 17.6%
Overall survival HR vs placebo, high LAT1 ([2]; only patients with high LAT1): 0.670
PFS HR vs placebo, EHC and GBC integrated ([2]; patients with GBC/EHC): 0.218
Grade 3 or higher treatment-related adverse events ([3]; fatigue, decreased platelet count, hypertension): three
Abdominal discomfort, All grades ([3]; n = 70): 2 (2.9%) n (%)
At least one adverse event, All grades ([3]; n = 70): 60 (85.7%) n (%)
At least one adverse event, ≥ Grade 3 ([3]; n = 70): 21 (30.0%) n (%)
Blood creatinine elevation, All grades ([3]; n = 70): 1 (1.4%) n (%)
Cancer pain, All grades ([3]; n = 70): 6 (8.6%) n (%)
Cancer pain, ≥ Grade 3 ([3]; n = 70): 1 (1.4%) n (%)
Cholangitis, All grades ([3]; n = 70): 10 (14.3%) n (%)
Cholangitis, ≥ Grade 3 ([3]; n = 70): 9 (12.9%) n (%)
Constipation, All grades ([3]; n = 70): 10 (14.3%) n (%)
Diarrhea, All grades ([3]; n = 70): 8 (11.4%) n (%)
Diarrhea, ≥ Grade 3 ([3]; n = 70): 1 (1.4%) n (%)
Fatigue, All grades ([3]; n = 70): 1 (1.4%) n (%)
Fever, All grades ([3]; n = 70): 9 (12.9%) n (%)
High blood pressure, All grades ([3]; n = 70): 5 (7.1%) n (%)
High blood pressure, ≥ Grade 3 ([3]; n = 70): 2 (2.9%) n (%)
Hypophagia, All grades ([3]; n = 70): 16 (22.9%) n (%)
Insomnia, All grades ([3]; n = 70): 8 (11.4%) n (%)
Malaise, All grades ([3]; n = 70): 11 (15.7%) n (%)
Malaise, ≥ Grade 3 ([3]; n = 70): 1 (1.4%) n (%)
Nasopharyngitis, All grades ([3]; n = 70): 1 (1.4%) n (%)
Nausea, All grades ([3]; n = 70): 9 (12.9%) n (%)
Pruritus, All grades ([3]; n = 70): 5 (7.1%) n (%)
Rash, All grades ([3]; n = 70): 2 (2.9%) n (%)
Stomatitis, All grades ([3]; n = 70): 4 (5.7%) n (%)
Tumor pain, All grades ([3]; n = 70): 1 (1.4%) n (%)
Vomiting, All grades ([3]; n = 70): 5 (7.1%) n (%)
adverse events of Grade 3 or higher ([3]; safety population n=70): 30.0%
frequency of all adverse events ([3]; safety population n=70): 85.7%
serious adverse events ([3]; safety population n=70): 21.4%
treatment-related adverse events ([3]; safety population n=70): 41.4%
discontinuations or dose reductions ([3]; trial observation period): no discontinuations or dose reductions; also recorded: Neither discontinuations nor dose reductions were considered as treatment related
treatment-related deaths ([3]; trial observation period): no deaths suspected to be related to Nanvuranlat; also recorded: No treatment-related deaths; also recorded: no deaths or discontinuations linked to treatment
